Series [1] addresses T1, full-length B-Catenin (Uniprot ID P35222) (Homo sapiens, UniProt P35222).
T1 construct: 65 nM full-length B-Catenin (Uniprot ID P35222)
T1 sequence (P35222 1-781): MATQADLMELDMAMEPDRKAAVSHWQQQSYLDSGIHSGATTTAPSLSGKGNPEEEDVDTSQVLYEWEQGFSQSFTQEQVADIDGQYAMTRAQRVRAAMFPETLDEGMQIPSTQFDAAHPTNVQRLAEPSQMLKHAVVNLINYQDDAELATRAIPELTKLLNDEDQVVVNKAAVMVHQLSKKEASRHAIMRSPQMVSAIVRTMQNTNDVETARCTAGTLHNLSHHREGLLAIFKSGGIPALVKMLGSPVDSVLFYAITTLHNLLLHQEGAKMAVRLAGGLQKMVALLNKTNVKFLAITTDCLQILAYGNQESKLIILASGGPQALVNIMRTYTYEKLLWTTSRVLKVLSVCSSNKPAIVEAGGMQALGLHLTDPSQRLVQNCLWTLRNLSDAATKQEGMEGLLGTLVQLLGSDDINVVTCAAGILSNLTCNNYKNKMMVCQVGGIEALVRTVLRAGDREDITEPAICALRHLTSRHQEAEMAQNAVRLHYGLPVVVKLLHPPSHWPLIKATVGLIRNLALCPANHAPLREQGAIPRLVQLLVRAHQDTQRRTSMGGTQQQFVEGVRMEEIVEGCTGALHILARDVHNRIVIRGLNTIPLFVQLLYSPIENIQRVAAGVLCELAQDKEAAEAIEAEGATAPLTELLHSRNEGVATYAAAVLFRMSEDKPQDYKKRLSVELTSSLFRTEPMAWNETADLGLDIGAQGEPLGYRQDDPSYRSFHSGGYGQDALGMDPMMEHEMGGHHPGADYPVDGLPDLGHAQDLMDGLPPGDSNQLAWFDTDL
Kind of series: Alphascreen binding assay (beta-catenin / biotin-TCF4 10-53). Put shortly:
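Final concentrations: 65 nM full-length human β-catenin plus 10 nM biotin-TCF4(10-53) peptide, test peptide 3-fold from 10 uM to 5 nM, preincubated 15 min at 20 °C in Tris pH 8.0/250 mM NaCl buffer. Nickel-chelate AlphaScreen donor/acceptor beads then added for 60 min in the dark; duplicate reads fitted to 1:1 binding model with Hill slope.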
For orientation: In Alpha technology, singlet oxygen from a donor bead excites a nearby acceptor bead.

Another series is described as follows: CHI Log D procedure. The note with it: for chromatographic logD: pH 7.4, CHI Log D; for CHI Log D: pH 7.4. It counts as physicochemical.

For orientation: EC50 means the concentration giving half of the maximal effect. A lower EC50 goes with an effect from little substance. The term chromatographic logD denotes a lipophilicity value derived from retention on a column. Read a high chromatographic logD as a more lipophilic compound. Compound `CC(=O)N1CCC[C@]12CC=CCCCC1(CCCC=CCCCCCC[C@@](C)(C(=O)N[C@@H](Cc3ccccc3)C(=O)N[C@@H](Cc3c[nH]c4ccccc34)C(=O)N[C@@H](CCC(N)=O)C(N)=O)NC(=O)[C@H](C(C)C)NC(=O)[C@H](Cc3ccccc3)NC(=O)[C@H](C)NC(=O)[C@H](C)NC(=O)[C@H](Cc3ccc4ccccc4c3)NC(=O)[C@H](CC(=O)O)NC1=O)NC(=O)[C@H](C)NC(=O)[C@H](CC(=O)O)NC2=O` (stereo partly drawn) [I-232, Ac-PL3-Asp-Ala-B5-Asp-2NapA-Ala-Ala-Phe-Val-S8-Phe-Trp-Gln-NH2] returned an EC50 in series [1] of 7.64 µM. Further, the chromatographic logD in the series “CHI Log D procedure” was 3.04.

In series [1], `CC(=O)N1CCC[C@]12CC=CCCCC1(CCCC=CCCCCCC[C@@](C)(C(=O)N[C@@H](Cc3ccccc3)C(=O)N[C@@H](Cc3c[nH]c4ccccc34)C(=O)N[C@@H](CCC(N)=O)C(N)=O)NC(=O)[C@H](C(C)C)NC(=O)[C@H](Cc3ccccc3)NC(=O)[C@H](C)NC(=O)[C@H](C)NC(=O)[C@H](Cc3c[nH]c4ccccc34)NC(=O)[C@H](CC(=O)O)NC1=O)NC(=O)[C@H](C)NC(=O)[C@H](CC(=O)O)NC2=O` (stereo partly drawn) [I-233, Ac-PL3-Asp-Ala-B5-Asp-Trp-Ala-Ala-Phe-Val-S8-Phe-Trp-Gln-NH2] yielded an EC50 of 5.9 µM. In “CHI Log D procedure”, this compound had a chromatographic logD of 2.82.

In series [1], `CC(=O)N1CCC[C@]12CC=CCCCC1(CCCC=CCCCCCC[C@@](C)(C(=O)N[C@@H](Cc3ccccc3)C(=O)N[C@@H](Cc3c[nH]c4ccccc34)C(=O)N[C@@H](CCC(N)=O)C(N)=O)NC(=O)[C@H](C(C)C)NC(=O)[C@H](Cc3cccc(C(F)(F)F)c3)NC(=O)[C@H](C)NC(=O)[C@H](C)NC(=O)[C@H](CC(=O)O)NC(=O)[C@H](CC(=O)O)NC1=O)NC(=O)[C@H](C)NC(=O)[C@H](CC(=O)O)NC2=O` (stereo partly drawn) [I-236, Ac-PL3-Asp-Ala-B5-Asp-Asp-Ala-Ala-3F3MeF-Val-S8-Phe-Trp-Gln-NH2] showed an EC50 of 0.384 µM. Moreover, the “CHI Log D” value in the series “CHI Log D procedure” came to 2.067.

As for `CC(=O)N1CCC[C@]12CC=CCCCC1(CCCC=CCCCCCC[C@@](C)(C(=O)N[C@@H](Cc3ccccc3)C(=O)N[C@@H](Cc3c[nH]c4ccccc34)C(=O)N[C@@H](CCC(N)=O)C(N)=O)NC(=O)[C@H](C(C)C)NC(=O)[C@H](Cc3cccc(C(F)(F)F)c3)NC(=O)[C@H](C)NC(=O)[C@H](C)NC(=O)[C@H](CC(=O)O)NC(=O)[C@H](CC(=O)O)NC1=O)NC(=O)[C@H](C)NC(=O)[C@H](CC(=O)O)NC2=O` (stereo partly drawn) [I-237, Ac-PL3-Asp-Ala-B5-Asp-Asp-Ala-Ala-3F3MeF-Val-S8-Phe-Trp-Gln-NH2], the concentration giving a half-maximal response (EC50) in series [1] was found to be 0.384 µM. Besides, in the series “CHI Log D procedure”, the “CHI Log D” value was found to be 2.067.

As to `CC(=O)N1CCC[C@]12CC=CCCCC1(CCCC=CCCCCCC[C@@](C)(C(=O)N[C@@H](Cc3ccccc3)C(=O)N[C@@H](Cc3c[nH]c4ccccc34)C(=O)N[C@@H](CCC(N)=O)C(N)=O)NC(=O)[C@H](C(C)C)NC(=O)[C@H](Cc3ccc(C(F)(F)F)cc3)NC(=O)[C@H](C)NC(=O)[C@H](C)NC(=O)[C@H](CC(=O)O)NC(=O)[C@H](CC(=O)O)NC1=O)NC(=O)[C@H](C)NC(=O)[C@H](CC(=O)O)NC2=O` (stereo partly drawn) [I-240, Ac-PL3-Asp-Ala-B5-Asp-Asp-Ala-Ala-4F3MeF-Val-S8-Phe-Trp-Gln-NH2], in series [1], the concentration for a half-maximal effect (EC50) amounted to 3.47 µM. For the same compound, the “CHI Log D” value in “CHI Log D procedure” is on record as 2.074.

As to `CC(=O)N1CCC[C@]12CC=CCCCC1(CCCC=CCCCCCC[C@@](C)(C(=O)N[C@@H](Cc3ccccc3)C(=O)N[C@@H](Cc3c[nH]c4ccccc34)C(=O)N[C@@H](CCC(N)=O)C(N)=O)NC(=O)[C@H](C(C)C)NC(=O)[C@H](Cc3ccc(C(F)(F)F)cc3)NC(=O)[C@H](C)NC(=O)[C@H](C)NC(=O)[C@H](CC(=O)O)NC(=O)[C@H](CC(=O)O)NC1=O)NC(=O)[C@H](C)NC(=O)[C@H](CC(=O)O)NC2=O` (stereo partly drawn) [I-241, Ac-PL3-Asp-Ala-B5-Asp-Asp-Ala-Ala-4F3MeF-Val-S8-Phe-Trp-Gln-NH2], in series [1], a half-maximal effect (EC50) was put at 3.47 µM. In the series “CHI Log D procedure”, the “CHI Log D” value was determined as 2.074.

With `CC(=O)N1CCC[C@]12CC=CCCCC1(CCCC=CCCCCCC[C@@](C)(C(=O)N[C@@H](Cc3ccccc3)C(=O)N[C@@H](Cc3c[nH]c4ccccc34)C(=O)N[C@@H](CCC(N)=O)C(N)=O)NC(=O)[C@H](C(C)C)NC(=O)[C@H](Cc3ccc(C(F)(F)F)cc3)NC(=O)[C@H](C)NC(=O)[C@H](C)NC(=O)[C@H](CC(=O)O)NC(=O)[C@H](CC(=O)O)NC1=O)NC(=O)[C@H](C)NC(=O)[C@H](CC(=O)O)NC2=O` (stereo partly drawn) [I-242, Ac-PL3-Asp-Ala-B5-Asp-Asp-Ala-Ala-4F3MeF-Val-S8-Phe-Trp-Gln-NH2], in series [1], the concentration for a half-maximal effect (EC50) came out at 4.91 µM. In addition, in the series “CHI Log D procedure”, the “CHI Log D” value was determined as 2.098.

For the compound `CC(=O)N1CCC[C@]12CC=CCCCC1(CCCC=CCCCCCC[C@@](C)(C(=O)N[C@@H](Cc3ccccc3)C(=O)N[C@@H](Cc3c[nH]c4ccccc34)C(=O)N[C@@H](CCC(N)=O)C(N)=O)NC(=O)[C@H](C(C)C)NC(=O)[C@H](Cc3ccc(C(F)(F)F)cc3)NC(=O)[C@H](C)NC(=O)[C@H](C)NC(=O)[C@H](CC(=O)O)NC(=O)[C@H](CC(=O)O)NC1=O)NC(=O)[C@H](C)NC(=O)[C@H](CC(=O)O)NC2=O` (stereo partly drawn) [I-243, Ac-PL3-Asp-Ala-B5-Asp-Asp-Ala-Ala-4F3MeF-Val-S8-Phe-Trp-Gln-NH2], in series [1], the response was half-maximal at 4.91 µM (EC50). Besides, the “CHI Log D” value in the series “CHI Log D procedure” is listed as 2.098.

The compound `CC(=O)N1CCC[C@]12CC=CCCCC1(CCCC=CCCCCCC[C@@](C)(C(=O)N[C@@H](Cc3ccccc3)C(=O)N[C@@H](Cc3c[nH]c4ccccc34)C(=O)N[C@@H](CCC(N)=O)C(N)=O)NC(=O)[C@H](C(C)C)NC(=O)[C@H](Cc3ccccc3)NC(=O)[C@H](C)NC(=O)[C@H](C)NC(=O)[C@H](Cc3cccc(C(F)(F)F)c3)NC(=O)[C@H](CC(=O)O)NC1=O)NC(=O)[C@H](C)NC(=O)[C@H](CC(=O)O)NC2=O` (stereo partly drawn) [I-244, Ac-PL3-Asp-Ala-B5-Asp-3F3MeF-Ala-Ala-Phe-Val-S8-Phe-Trp-Gln-NH2] displayed an EC50 in series [1] of 2.96 µM. In addition, the “CHI Log D” value in “CHI Log D procedure” is recorded as 3.101.

Compound `CC(=O)N1CCC[C@]12CC=CCCCC1(CCCC=CCCCCCC[C@@](C)(C(=O)N[C@@H](Cc3ccccc3)C(=O)N[C@@H](Cc3c[nH]c4ccccc34)C(=O)N[C@@H](CCC(N)=O)C(N)=O)NC(=O)[C@H](C(C)C)NC(=O)[C@H](Cc3ccccc3)NC(=O)[C@H](C)NC(=O)[C@H](C)NC(=O)[C@H](Cc3ccc(C(F)(F)F)cc3)NC(=O)[C@H](CC(=O)O)NC1=O)NC(=O)[C@H](C)NC(=O)[C@H](CC(=O)O)NC2=O` (stereo partly drawn) [I-246, Ac-PL3-Asp-Ala-B5-Asp-4F3MeF-Ala-Ala-Phe-Val-S8-Phe-Trp-Gln-NH2] showed an EC50 in series [1] of 3.97 µM. For the same compound, in the series “CHI Log D procedure”, the “CHI Log D” value stood at 3.01.

For `CC(=O)N1CCC[C@]12CC=CCCCC1(CCCC=CCCCCCC[C@@](C)(C(=O)N[C@@H](Cc3cccc(C(F)(F)F)c3)C(=O)N[C@@H](Cc3c[nH]c4ccccc34)C(=O)N[C@@H](CCC(N)=O)C(N)=O)NC(=O)[C@H](C(C)C)NC(=O)[C@H](Cc3ccccc3)NC(=O)[C@H](C)NC(=O)[C@H](C)NC(=O)[C@H](CC(=O)O)NC(=O)[C@H](CC(=O)O)NC1=O)NC(=O)[C@H](C)NC(=O)[C@H](CC(=O)O)NC2=O` (stereo partly drawn) [I-248, Ac-PL3-Asp-Ala-B5-Asp-Asp-Ala-Ala-Phe-Val-S8-3F3MeF-Trp-Gln-NH2], the half-maximal effective concentration (EC50) in series [1] was 2.83 µM. Moreover, the “CHI Log D” value in “CHI Log D procedure” is 2.263.

Compound `CC(=O)N1CCC[C@]12CC=CCCCC1(CCCC=CCCCCCC[C@@](C)(C(=O)N[C@@H](Cc3cccc(C(F)(F)F)c3)C(=O)N[C@@H](Cc3c[nH]c4ccccc34)C(=O)N[C@@H](CCC(N)=O)C(N)=O)NC(=O)[C@H](C(C)C)NC(=O)[C@H](Cc3ccccc3)NC(=O)[C@H](C)NC(=O)[C@H](C)NC(=O)[C@H](CC(=O)O)NC(=O)[C@H](CC(=O)O)NC1=O)NC(=O)[C@H](C)NC(=O)[C@H](CC(=O)O)NC2=O` (stereo partly drawn) [I-249, Ac-PL3-Asp-Ala-B5-Asp-Asp-Ala-Ala-Phe-Val-S8-3F3MeF-Trp-Gln-NH2] came in with an EC50 in series [1] of 2.83 µM. Also, in the series “CHI Log D procedure”, the “CHI Log D” value worked out at 2.263.

Consider `CC(=O)N1CCC[C@]12CC=CCCCC1(CCCC=CCCCCCC[C@@](C)(C(=O)N[C@@H](Cc3cccc(C(F)(F)F)c3)C(=O)N[C@@H](Cc3c[nH]c4ccccc34)C(=O)N[C@@H](CCC(N)=O)C(N)=O)NC(=O)[C@H](C(C)C)NC(=O)[C@H](Cc3ccccc3)NC(=O)[C@H](C)NC(=O)[C@H](C)NC(=O)[C@H](CC(=O)O)NC(=O)[C@H](CC(=O)O)NC1=O)NC(=O)[C@H](C)NC(=O)[C@H](CC(=O)O)NC2=O` (stereo partly drawn) [I-250, Ac-PL3-Asp-Ala-B5-Asp-Asp-Ala-Ala-Phe-Val-S8-3F3MeF-Trp-Gln-NH2], for which, in series [1], it took 1.2 µM to reach a half-maximal effect (EC50). Further, the “CHI Log D” value in the series “CHI Log D procedure” was determined as 2.299.

For the origin of these results see US20240116985A1, “STAPLED PEPTIDES AND METHODS THEREOF” (priority 2020, published 2024).
